According to patent US11202834B2, “Synthesis and processing of poly(pro-drug) materials for extended drug release and uses thereof” (RENSSELAER POLYTECHNIC INSTITUTE, priority 2018, dated 2021):

Experiments:
[1] = tested on: whole dorsal root ganglion (DRG); assay: neurite extension of whole dorsal root ganglion cultured on scaffolds; assay type: cell-based; details: DRG on PLLA/PLLA scaffolds with 100 nM bolus of exogenous E2 at the beginning of culture
Method: To examine the bioactivity of E2 released during poly(pro-drug) material degradation and the effects of sustained E2 release on neurons, whole dorsal root ganglion (DRG) were cultured on poly(pro-drug) material films to examine the ability of the poly(pro-drug) material to promote neurite extension. To analyze material-derived neurite extension, DRG were cultured onto three types of scaffolds: 1) PLLA fibers electrospun onto a PLLA film (PLLA/PLLA), 2) PLLA fibers electrospun on to a PLLA film with a 100 nM bolus of exogenous E2 at the beginning of culture (PLLA/PLLA+Exo E2), and 3) PLLA fibers electrospun onto a poly(pro-drug) material film (PLLA/P1). […] PLLA fibers were used in this experiment to isolate the effects of E2 released the poly(pro-drug) material as the only factor influencing DRG neurite extension.

[2] = not told

| Compound | average neurite outgrowth from DRG [1] | Young's modulus (Er) [2] |
| --- | --- | --- |
| C[C@]12CC[C@@H]3c4ccc(O)cc4CC[C@H]3[C@@H]1CC[C@@H]2O [E2, 17β-Estradiol] | 526.7±273.4 μm |  |
| poly(L-lactic acid) [PLLA] |  | 5.38±1.06 GPa |
